# According to ChEMBL document CHEMBL1127439, “Structure-activity relationship studies of central nervous system agents. 13. 4-[3-(Benzotriazol-1-yl)propyl]-1-(2-methoxyphenyl)piperazine, a new putative 5-HT1A receptor antagonist, and its analogs” (J Med Chem, 1994):
# Key:
# Mus musculus [1] = assay: Effect on 8-OH-DPAT-induced hypothermia in mice (5 mg/kg) at intraperitoneal dosage of 8 mg/kg of compound after 30 mins; format: functional
# Rattus norvegicus [2] = organism: Rattus norvegicus; assay: Selectivity is the ratio between Ki values of 5-HT2 and 5-HT1A
# Mus musculus [3] = assay: Effect on 8-OH-DPAT-induced hypothermia in mice (5 mg/kg) at intraperitoneal dosage of 2 mg/kg of compound after 60 mins; format: functional
# Mus musculus [4] = assay: Effect on body temperature in mice at intraperitoneal dosage of 8 mg/kg, (compound administered 30 min before the test) after 75 min; format: functional
# Rattus norvegicus [5] = assay: Tested for the induction of lower lip retraction (LLR) by the investigated compounds in rat at dosage of 2 mg/kg; format: functional
# Mus musculus [6] = assay: Effect on 8-OH-DPAT-induced hypothermia in mice (5 mg/kg) at intraperitoneal dosage of 8 mg/kg of compound after 45 mins; format: functional
# Rattus norvegicus [7] = assay: Tested for the effect on 8-OH-DPAT-induced behavior in reserpine pretreated rat against forepaw treading at dosage of 4 mg/kg; format: functional
# Rattus norvegicus [8] = assay: Tested for the effect on 8-OH-DPAT-induced behavior in reserpine pretreated rat against forepaw treading at dosage of 2 mg/kg; format: functional
# Mus musculus [9] = assay: Effect on body temperature in mice at intraperitoneal dosage of 8 mg/kg, (compound administered 30 min before the test) after 90 min; format: functional
# Rattus norvegicus [10] = assay: Tested for the effect on 8-OH-DPAT-induced behavior in reserpine pretreated rat against flat body posture at dosage of 4 mg/kg; format: functional
# Mus musculus [11] = assay: Effect on body temperature in mice at intraperitoneal dosage of 4 mg/kg, (compound administered 30 min before the test) after 60 min; format: functional
# Mus musculus [12] = assay: Effect on body temperature in mice at intraperitoneal dosage of 2 mg/kg, (compound administered 30 min before the test) after 75 min; format: functional
# Rattus norvegicus [13] = assay: Tested for the effect on 8-OH-DPAT-induced behavior in reserpine pretreated rat against flat body posture at dosage of 1 mg/kg; format: functional
# Mus musculus [14] = assay: Effect on 8-OH-DPAT-induced hypothermia in mice (5 mg/kg) at intraperitoneal dosage of 2 mg/kg of compound after 15 mins; format: functional
# Mus musculus [15] = assay: Effect on 8-OH-DPAT-induced hypothermia in mice (5 mg/kg) at intraperitoneal dosage of 8 mg/kg of compound after 15 mins; format: functional
# Mus musculus [16] = assay: Effect on 8-OH-DPAT-induced hypothermia in mice (5 mg/kg) at intraperitoneal dosage of 8 mg/kg of compound after 60 mins; format: functional
# Rattus norvegicus [17] = assay: Tested for the effect on 8-OH-DPAT-induced behavior in reserpine pretreated rat against flat body posture at dosage of 2 mg/kg; format: functional
# Rattus norvegicus [18] = assay: Tested for the effect on 8-OH-DPAT-induced behavior in reserpine pretreated rat against forepaw treading at dosage of 16 mg/kg; format: functional
# Mus musculus [19] = assay: Effect on body temperature in mice at intraperitoneal dosage of 2 mg/kg, (compound administered 30 min before the test) after 90 min; format: functional
# Mus musculus [20] = assay: Effect on body temperature in mice at intraperitoneal dosage of 8 mg/kg, (compound administered 30 min before the test) after 45 min; format: functional
# [21] = target: Serotonin 2 (5-HT2) receptor (Rattus norvegicus, UniProt P30994+P08909+P14842); assay: Tested in vitro for receptor binding affinity against 5-hydroxytryptamine 2 receptor using radioligand [3H]ketanserin; format: protein assay
# Mus musculus [22] = assay: Effect on body temperature in mice at intraperitoneal dosage of 8 mg/kg, (compound administered 30 min before the test) after 60 min; format: functional
# Mus musculus [23] = assay: Effect on 8-OH-DPAT-induced hypothermia in mice (5 mg/kg) at intraperitoneal dosage of 4 mg/kg of compound after 15 mins; format: functional
# Mus musculus [24] = assay: Effect on body temperature in mice at intraperitoneal dosage of 2 mg/kg, (compound administered 30 min before the test) after 60 min; format: functional
# Mus musculus [25] = assay: Effect on 8-OH-DPAT-induced hypothermia in mice (5 mg/kg) at intraperitoneal dosage of 2 mg/kg of compound after 30 mins; format: functional
# Rattus norvegicus [26] = assay: Tested for the effect on 8-OH-DPAT-induced lower lip retraction (LLR) in rat at dosage of 16 mg/kg; format: functional
# Rattus norvegicus [27] = assay: Tested for the effect on 8-OH-DPAT-induced behavior in reserpine pretreated rat against flat body posture at dosage of 8 mg/kg; format: functional
# Rattus norvegicus [28] = assay: Tested for the effect on 8-OH-DPAT-induced behavior in reserpine pretreated rat against forepaw treading at dosage of 8 mg/kg; format: functional
# Rattus norvegicus [29] = assay: Tested for the induction of lower lip retraction (LLR) by the investigated compounds in rat at dosage of 4 mg/kg; format: functional
# Rattus norvegicus [30] = assay: Tested for the effect on 8-OH-DPAT-induced behavior in reserpine pretreated rat against flat body posture at dosage of 16 mg/kg; format: functional
# Mus musculus [31] = assay: Effect on body temperature in mice at intraperitoneal dosage of 2 mg/kg, (compound administered 30 min before the test) after 45 min; format: functional
# Rattus norvegicus [32] = assay: Tested for the effect on 8-OH-DPAT-induced behavior in reserpine pretreated rat against forepaw treading at dosage of 1 mg/kg; format: functional
# Rattus norvegicus [33] = assay: Tested for the effect on 8-OH-DPAT-induced lower lip retraction (LLR) in rat at dosage of 8 mg/kg; format: functional
# Rattus norvegicus [34] = assay: Tested for the effect on 8-OH-DPAT-induced lower lip retraction (LLR) in rat at dosage of 2 mg/kg; format: functional
# Rattus norvegicus [35] = assay: Tested for the induction of lower lip retraction (LLR) by the investigated compounds in rat at dosage of 16 mg/kg; format: functional
# Mus musculus [36] = assay: Effect on body temperature in mice at intraperitoneal dosage of 2 mg/kg, (compound administered 30 min before the test) after 30 min; format: functional
# Rattus norvegicus [37] = assay: Tested for the induction of lower lip retraction (LLR) by the investigated compounds in rat at dosage of 8 mg/kg; format: functional
# Mus musculus [38] = assay: Effect on 8-OH-DPAT-induced hypothermia in mice (5 mg/kg) at intraperitoneal dosage of 4 mg/kg of compound after 60 mins; format: functional
# Mus musculus [39] = assay: Effect on body temperature in mice at intraperitoneal dosage of 8 mg/kg, (compound administered 30 min before the test) after 30 min; format: functional
# [40] = target: T1, 5-hydroxytryptamine receptor 1A (Rattus norvegicus, UniProt P19327); assay: Tested in vitro for receptor binding affinity against 5-hydroxytryptamine 1A receptor using radioligand [3H]8-OH-DPAT
# T1 sequence (P19327 whole entry): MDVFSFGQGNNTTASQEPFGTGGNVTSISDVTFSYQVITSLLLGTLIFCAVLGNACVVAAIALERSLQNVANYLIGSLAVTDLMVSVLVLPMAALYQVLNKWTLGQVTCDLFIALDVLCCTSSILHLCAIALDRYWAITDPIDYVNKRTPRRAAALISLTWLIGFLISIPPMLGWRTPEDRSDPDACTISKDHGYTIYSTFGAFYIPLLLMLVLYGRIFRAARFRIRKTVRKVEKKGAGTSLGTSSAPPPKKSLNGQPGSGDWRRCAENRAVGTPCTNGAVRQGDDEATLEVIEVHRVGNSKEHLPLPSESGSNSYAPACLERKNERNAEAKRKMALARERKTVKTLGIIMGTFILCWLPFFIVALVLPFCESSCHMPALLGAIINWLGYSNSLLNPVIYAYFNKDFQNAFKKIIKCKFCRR
# Mus musculus [41] = assay: Effect on body temperature in mice at intraperitoneal dosage of 4 mg/kg, (compound administered 30 min before the test) after 30 min; format: functional
# Mus musculus [42] = assay: Effect on 8-OH-DPAT-induced hypothermia in mice (5 mg/kg) at intraperitoneal dosage of 4 mg/kg of compound after 45 mins; format: functional
# Mus musculus [43] = assay: Effect on 8-OH-DPAT-induced hypothermia in mice (5 mg/kg) at intraperitoneal dosage of 2 mg/kg of compound after 45 mins; format: functional
# Mus musculus [44] = assay: Effect on body temperature in mice at intraperitoneal dosage of 4 mg/kg, (compound administered 30 min before the test) after 75 min; format: functional
# Rattus norvegicus [45] = assay: Tested for the effect on 8-OH-DPAT-induced lower lip retraction (LLR) in rat at dosage of 4 mg/kg; format: functional
# Mus musculus [46] = assay: Effect on body temperature in mice at intraperitoneal dosage of 4 mg/kg, (compound administered 30 min before the test) after 90 min; format: functional
# Mus musculus [47] = assay: Effect on body temperature in mice at intraperitoneal dosage of 4 mg/kg, (compound administered 30 min before the test) after 45 min; format: functional
# Mus musculus [48] = assay: Effect on 8-OH-DPAT-induced hypothermia in mice (5 mg/kg) at intraperitoneal dosage of 4 mg/kg of compound after 30 mins; format: functional
structure (smiles),measurement,setting,value
COc1ccccc1N1CCN(CCCCn2nc3ccccc3n2)CC1,Delta t,Mus musculus [1],2.2 °C
same,Selectivity,Rattus norvegicus [2],54
same,Delta t,Mus musculus [3],0.9 °C
same,Delta t,Mus musculus [4],2 °C
same,LLR score,Rattus norvegicus [5],0.3
same,Delta t,Mus musculus [6],1.6 °C
same,Behavioral score,Rattus norvegicus [7],5.1
same,Behavioral score,Rattus norvegicus [8],5.6
same,Delta t,Mus musculus [9],1.4 °C
same,Behavioral score,Rattus norvegicus [10],11.7
same,Delta t,Mus musculus [11],0.9 °C
same,Delta t,Mus musculus [12],0.3 °C
same,Behavioral score,Rattus norvegicus [13],14.2
same,Delta t,Mus musculus [14],2.1 °C
same,Delta t,Mus musculus [15],2.4 °C
same,Delta t,Mus musculus [16],1.1 °C
same,Behavioral score,Rattus norvegicus [17],9.3
same,Behavioral score,Rattus norvegicus [18],1.3
same,Delta t,Mus musculus [19],0.1 °C
same,Delta t,Mus musculus [20],2.5 °C
same,Ki,[21],214 nM
same,Delta t,Mus musculus [22],2 °C
same,Delta t,Mus musculus [23],2.7 °C
same,Delta t,Mus musculus [24],0.2 °C
same,Delta t,Mus musculus [25],1.9 °C
same,LLR score,Rattus norvegicus [26],2.4
same,Behavioral score,Rattus norvegicus [27],5.2
same,Behavioral score,Rattus norvegicus [28],2.4
same,LLR score,Rattus norvegicus [29],1
same,Behavioral score,Rattus norvegicus [30],2.6
same,Delta t,Mus musculus [31],0 °C
same,Behavioral score,Rattus norvegicus [32],13.6
same,LLR score,Rattus norvegicus [33],2.4
same,LLR score,Rattus norvegicus [34],2.5
same,LLR score,Rattus norvegicus [35],1.9
same,Delta t,Mus musculus [36],0.1 °C
same,LLR score,Rattus norvegicus [37],1.5
same,Delta t,Mus musculus [38],1.3 °C
same,Delta t,Mus musculus [39],2.8 °C
same,Ki,[40],4 nM
same,Delta t,Mus musculus [41],0.9 °C
same,Delta t,Mus musculus [42],1.8 °C
same,Delta t,Mus musculus [43],1.2 °C
same,Delta t,Mus musculus [44],0.8 °C
same,LLR score,Rattus norvegicus [45],2.3
same,Delta t,Mus musculus [46],0.8 °C
same,Delta t,Mus musculus [47],0.8 °C
same,Delta t,Mus musculus [48],2.3 °C
